We go through six molecules from patent publication US10364244B2, “Crystal form of pyrroloquinoline quinone sodium salt and preparation method and use thereof” (Zhejiang Hisun Pharmaceutical Co., Ltd., priority 2015, dated 2019).

Data set [1] is described as follows: Hygroscopicity test (25° C., humidity 75%, 24 h). It is filed as physicochemical. Conditions: for Rate of moisture absorption: 1 g sample, temperature of 25° C., humidity of 75%; for hygroscopicity (conclusion in words from the hygroscopicity test): 25° C., humidity 75%. The procedure: Hygroscopicity test. Test Conditions: watch glasses were placed in the environment at the temperature of 25° C. and the humidity of 75% for 24 h, then for each of the following samples, 1 g was weighed, and the weighted samples were quickly placed in the environment at the temperature of 25° C. and the humidity of 75% for 24 h to absorb moisture sufficiently.

The conditions of data set [2]: at 65%-85% RH; cited from earlier work.

Regarding `O=C(O)c1cc(C(=O)O)c2c(n1)C(=O)C(=O)c1cc(C(=O)O)[nH]c1-2.[Na].[Na]` [Crystal form I, pyrroloquinoline quinone disodium salt], in data set [1] (disodium salt), the “Rate of moisture absorption” value worked out at 0% and the “hygroscopicity (conclusion in words from the hygroscopicity test)” value is “not hygroscopic”.

With `O=C(O)c1cc(C(=O)O)c2c(n1)C(=O)C(=O)c1cc(C(=O)O)[nH]c1-2.[Na].[Na]` [Crystal form II, pyrroloquinoline quinone disodium salt], in data set [1] (disodium salt), the “Rate of moisture absorption” value is given as 0.30%.

As to `O=C(O)c1cc(C(=O)O)c2c(n1)C(=O)C(=O)c1cc(C(=O)O)[nH]c1-2.[Na].[Na]` [Crystal form III, pyrroloquinoline quinone disodium salt], in data set [1] (disodium salt), the “Rate of moisture absorption” value amounted to 0% and the “hygroscopicity (conclusion in words from the hygroscopicity test)” value is “not hygroscopic”.

Take `O=C(O)c1cc(C(=O)O)c2c(n1)C(=O)C(=O)c1cc(C(=O)O)[nH]c1-2.[Na]` [Crystal form IV, pyrroloquinoline quinone monosodium salt]: in data set [1], the “Rate of moisture absorption” value is given as 0% and the “hygroscopicity (conclusion in words from the hygroscopicity test)” value is “not hygroscopic”.

With `O=C(O)c1cc(C(=O)O)c2c(n1)C(=O)C(=O)c1cc(C(=O)O)[nH]c1-2.[Na].[Na]` [Crystal form of the disodium salt in CN201080031945] [pyrroloquinoline quinone disodium salt, reference compound], in data set [1] (disodium salt), the “Rate of moisture absorption” value was 0.85%. In addition, the “hygroscopicity (conclusion in words from the hygroscopicity test)” value in data set [1] (listed as crystal form in CN201080031945, disodium salt) is given as “strongest hygroscopicity”.

For the molecule `O=C(O)c1cc(C(=O)O)c2c(n1)C(=O)C(=O)c1cc(C(=O)O)[nH]c1-2.[Na]` [crystal form A in CN201210452297.6, pyrroloquinoline quinone sodium salt], in data set [2], the hygroscopicity result is “less than 3%”.
